Results published in ChEMBL document CHEMBL1150979, “DERIVATIVES OF 4-AMINO-PYRIDINE AS SELECTIVE THROMBIN INHIBITORS” (Bioorg Med Chem Lett, 1997).

Columns and labels:
[1] = target: Plasminogen (Homo sapiens, UniProt P00747); assay: Tested for the Inhibition of the catalytic activity of human plasmin at 25 degree C and pH 7.5.
[2] = target: T1, Serine protease 1 (Bos taurus, UniProt P00760); assay: Tested for the Inhibition of the catalytic activity of bovine trypsin at 25 degree C and pH 7.5.
T1 sequence (P00760 whole entry): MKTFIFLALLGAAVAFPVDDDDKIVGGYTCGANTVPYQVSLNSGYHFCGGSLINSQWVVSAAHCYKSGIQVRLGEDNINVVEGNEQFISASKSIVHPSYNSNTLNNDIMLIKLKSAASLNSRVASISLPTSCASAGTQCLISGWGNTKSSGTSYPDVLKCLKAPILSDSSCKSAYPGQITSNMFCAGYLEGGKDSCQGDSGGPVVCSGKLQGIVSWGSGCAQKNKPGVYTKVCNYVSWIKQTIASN

[3] = target: Prothrombin (Homo sapiens, UniProt P00734)
Description: Tested for the Inhibition of the catalytic activity of human Thrombin at 25 degree C and pH 7.5.

Sequence of Plasminogen (P00747 97-580 limits assumed): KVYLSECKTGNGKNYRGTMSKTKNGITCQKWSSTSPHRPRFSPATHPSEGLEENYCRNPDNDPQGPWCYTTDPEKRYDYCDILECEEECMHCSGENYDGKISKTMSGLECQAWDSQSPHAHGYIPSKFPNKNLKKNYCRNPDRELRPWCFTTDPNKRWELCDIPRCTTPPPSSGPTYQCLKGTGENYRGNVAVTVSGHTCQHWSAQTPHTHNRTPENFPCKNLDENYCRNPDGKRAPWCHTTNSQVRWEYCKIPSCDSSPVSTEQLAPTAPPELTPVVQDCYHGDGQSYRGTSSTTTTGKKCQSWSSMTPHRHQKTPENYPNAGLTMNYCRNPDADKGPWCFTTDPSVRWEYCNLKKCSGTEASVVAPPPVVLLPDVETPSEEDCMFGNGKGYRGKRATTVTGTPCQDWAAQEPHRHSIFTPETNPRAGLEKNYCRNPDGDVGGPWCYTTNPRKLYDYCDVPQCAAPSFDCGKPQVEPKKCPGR
Sequence of Plasminogen (P00747 581-810 limits assumed): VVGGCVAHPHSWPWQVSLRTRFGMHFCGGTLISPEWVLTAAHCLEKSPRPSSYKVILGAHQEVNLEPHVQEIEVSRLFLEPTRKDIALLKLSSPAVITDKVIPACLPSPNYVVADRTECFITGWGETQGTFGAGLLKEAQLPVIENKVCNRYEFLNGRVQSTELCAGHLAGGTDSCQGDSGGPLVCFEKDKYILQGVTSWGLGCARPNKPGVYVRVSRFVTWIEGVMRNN

Compound | Ki [1] [µM] | Ki [2] [µM] | Ki [3] [µM]
Cc1cccc(OCCNc2ccncc2)c1 | > 500 | > 500 | 30
O=S(=O)(Nc1cccc(OCCNc2ccncc2)c1)c1ccc2ccccc2c1 | > 500 | > 500 | 7
O=S(=O)(Nc1cccc(OCCNc2ccncc2)c1)c1ccc(Cl)cc1 | > 500 | > 500 | 0.7
O=C(CNS(=O)(=O)c1ccc2ccccc2c1)N[C@@H](CCNc1ccncc1)C(=O)N1CCCCC1 | > 500 | > 500 | 300
O=C(CNS(=O)(=O)c1ccc(Cl)cc1)N[C@H](CCNc1ccncc1)C(=O)N1CCCCC1 | > 500 | > 500 | 2
O=S(=O)(Nc1cccc(OCCNc2ccncc2)c1)c1ccccc1 | > 500 | > 500 | 0.3
OCCNc1ccncc1 | > 500 | > 500 | > 500
N=C(N)c1ccc(COc2cccc(CCNS(=O)(=O)c3ccc(Cl)cc3)c2)cc1 | 34 | 1.7 | 1.5
O=C(CNS(=O)(=O)c1ccc2ccccc2c1)N[C@H](CCNc1ccncc1)C(=O)N1CCCCC1 | > 500 | > 500 | 0.2
O=S(=O)(NCCc1cccc(OCCNc2ccncc2)c1)c1ccc(Cl)cc1 | > 500 | > 500 | 2.8
O=C(CNS(=O)(=O)c1ccccc1)N[C@H](CCNc1ccncc1)C(=O)N1CCCCC1 | > 500 | > 500 | 10
CN(c1cccc(OCCNc2ccncc2)c1)S(=O)(=O)c1ccccc1 | > 500 | > 500 | 0.07
c1ccc(OCCNc2ccncc2)cc1 | > 500 | > 500 | 120
Nc1ccncc1 [DALFAMPRIDINE] | > 2000 | > 2000 | > 2000
